Data set [1] deals with C. jejuni α-2,3-sialyltransferase (CST-06, MBP-fusion protein of the full length sialyltransferase) (Campylobacter jejuni, UniProt Q9RGF1). The experiment in a line: Acceptor specificity and kinetics on p-nitrophenyl-glycosides with malE-cst (CST-06). In kind it is biochemical. Conditions: p-NP-glycoside acceptor at 2.0 mM; for Relative Activity (CST-06): acceptor with lowest activity given the value 1. As for the experimental part: (§1) Kinetic analysis of acceptors was performed at 37° C. with p-NP-glycosides at concentrations of 0.1 to 10 mM, with CMP-Neu5Ac at 1 mM. Kinetic analysis of the donor CMP-Neu5Ac was performed at a concentration of 20 μM to 1000 μM with p-NP-lactose at 5 mM. Care was taken to ensure that the level of acceptor conversion was between about 5-10% for acceptor kinetic assays.
(§2) For donor kinetics the amount of conversion of CMP-Neu5Ac was calculated from the amount of product formed compared to an internal standard of 10 μM p-NP-glucose added after the reaction. This peak was well resolved from the acceptor and product peaks. The reactions with p-NP-glycosides were stopped by addition of an equal volume of 2% SDS, 20 mM EDTA and heated to 75° C. for 3 minutes and then diluted 1:1 (or maximally 1:10 for 10 mM concentrations) with water. The samples were then analyzed by CE using a diode array detector scanning between 260 and 300 nm, with the peaks at detected at 290 nm. The peaks from the electropherograms were analyzed using manual peak integration with the P/ACE Station™ software. For rapid detection of enzyme activity, samples from the transferase reaction mixtures were examined by thin layer chromatography on silica-60 TLC plates (E. Merck) as described in Gilbert et al. (1996) supra.
(§3) The acceptor specificity of the C. jejuni α-2,3-sialyltransferase was examined with a panel of p-NP-glycosides having both β1→4 and β1→3 linkages. The kinetic data for all of the acceptors was collected using the MBP-fusion protein of the full length sialyltransferase. The data for the acceptor specificity were collected first by assaying the enzyme at an acceptor concentration of 2.0 mM. The acceptor with the lowest activity was given the value of 1 for the comparison of activity. These reaction conditions were used in a comparison (Table 3) of the C. jejuni enzyme with the Lst protein from N. meningitidis (Gilbert et al. (1996) J. Biol. Chem. 271: 28271-28276). The N. meningitidis Lst protein was also a MBP protein fusion which was soluble and purified by affinity chromatography.

The target in data set [2] is T1, Lst protein from N. meningitidis (NST-33, MBP protein fusion) (Neisseria meningitidis serogroup B, UniProt P72097).
T1 construct: made in house
In kind it is biochemical. Conditions: p-NP-glycoside acceptor at 2.0 mM; for Relative Activity (NST-33): acceptor with lowest activity given the value 1. The protocol:
as §2, §3

Data set [3] has as its system CC(=O)N[C@H]1[C@@H](Oc2ccc([N+](=O)[O-])cc2)O[C@H](CO)[C@H](O)[C@@H]1O[C@@H]1O[C@H](CO)[C@H](O)[C@H](O)[C@H]1O. The experiment in a line: Acceptor specificity and kinetics on p-nitrophenyl-glycosides with malE-cst (CST-06). In kind it is biochemical, Campylobacter jejuni. As to conditions: other: 37° C., p-NP-glycosides 0.1 to 10 mM, CMP-Neu5Ac 1 mM. As for the experimental part: as §1, §2, §3

The subject of data set [4] is CC(=O)N[C@H]1[C@H](Oc2ccc([N+](=O)[O-])cc2)O[C@H](CO)[C@@H](O[C@@H]2O[C@H](CO)[C@H](O)[C@H](O)[C@H]2O)[C@@H]1O. The data set is described as above. In kind it is biochemical, Campylobacter jejuni. As to conditions: other: 37° C., p-NP-glycosides 0.1 to 10 mM, CMP-Neu5Ac 1 mM. As for the experimental part:
as §1, §2, §3

Data set [5] relates to [H][C@@]1(O[C@H]2[C@H](O)[C@@H](O)[C@H](Oc3ccc([N+](=O)[O-])cc3)O[C@@H]2CO)O[C@H](CO)[C@H](O)[C@H](O)[C@H]1O. The description is as above. Conditions: other: 37° C., p-NP-glycosides 0.1 to 10 mM, CMP-Neu5Ac 1 mM. Type of data set: biochemical, Campylobacter jejuni. The protocol: as §1, §2, §3

C. jejuni α-2,3-sialyltransferase (CST-06, MBP-fusion protein of the full length sialyltransferase), sequence (Q9RGF1 entry or part of it): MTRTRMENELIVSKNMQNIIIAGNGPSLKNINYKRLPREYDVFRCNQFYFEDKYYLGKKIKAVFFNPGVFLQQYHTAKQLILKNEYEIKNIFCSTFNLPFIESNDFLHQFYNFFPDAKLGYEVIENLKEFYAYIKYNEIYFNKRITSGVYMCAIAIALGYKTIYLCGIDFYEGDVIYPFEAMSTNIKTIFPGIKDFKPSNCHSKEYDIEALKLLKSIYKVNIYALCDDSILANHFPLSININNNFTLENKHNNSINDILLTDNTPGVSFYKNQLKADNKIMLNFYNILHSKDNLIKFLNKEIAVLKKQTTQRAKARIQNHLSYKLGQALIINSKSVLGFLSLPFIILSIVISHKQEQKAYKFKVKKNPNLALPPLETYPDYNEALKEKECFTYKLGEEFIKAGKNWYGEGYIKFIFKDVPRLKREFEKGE
T1 sequence (P72097 whole entry, the tested form may be a part): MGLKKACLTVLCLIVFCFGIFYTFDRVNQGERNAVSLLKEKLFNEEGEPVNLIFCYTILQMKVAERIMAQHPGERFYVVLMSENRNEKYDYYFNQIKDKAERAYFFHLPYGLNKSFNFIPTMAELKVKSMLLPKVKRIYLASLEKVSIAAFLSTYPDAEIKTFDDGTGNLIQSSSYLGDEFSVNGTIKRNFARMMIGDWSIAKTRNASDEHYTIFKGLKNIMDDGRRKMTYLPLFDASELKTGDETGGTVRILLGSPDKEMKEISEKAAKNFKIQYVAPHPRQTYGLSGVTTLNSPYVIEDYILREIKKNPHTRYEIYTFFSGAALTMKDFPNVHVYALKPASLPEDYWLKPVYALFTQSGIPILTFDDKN

For the compound `O=[N+]([O-])c1ccc(OC2OC(CO)C(OC3OC(CO)C(OC4OC(CO)C(O)C(O)C4O)C(O)C3O)C(O)C2O)cc1` (stereo not drawn) [Gal-α-1,4-Gal-β-Glc], the “Relative Activity (CST-06)” value in data set [1] is 0. Further, in data set [2], the “Relative Activity (NST-33)” value is recorded as 5.6.
Taken in the same sequence, the figures for `O=[N+]([O-])c1ccc(O[C@@H]2O[C@H](CO)[C@H](O)[C@H](O)[C@H]2O)cc1` [Gal-β] were 1 and 1.2.
Consider “C. jejuni α-2,3-sialyltransferase (CST-06, MBP-fusion protein of the full length sialyltransferase) (Campylobacter jejuni)”, for which the Km in data set [3] is 2.7 mM ± 0.1 mM; in data set [4], 0.8 mM ± 0.2 mM; in data set [5], 1.3 mM ± 0.12 mM.
For `O=[N+]([O-])c1ccc(O[C@@H]2O[C@H](CO)[C@@H](O[C@@H]3O[C@H](CO)[C@H](O)[C@H](O)[C@H]3O)[C@H](O)[C@H]2O)cc1` [Gal-β-1,4-Glc], in data set [1], the “Enzyme activity mU/mg (CST-06)” value is given as “mU/mg = 420” and the “Relative Activity (CST-06)” value was determined as 4.9. For the same compound, in data set [2], the “Enzyme activity mU/mg (NST-33)” value is given as “mU/mg = 30” and the “Relative Activity (NST-33)” value is 7.8.

The values are drawn from patent US7259239B2, “Lipopolysaccharide α-2,3 sialyltransferase of campylobacter jejuni and its uses” (priority 1998, dated 2007).
